Values quoted from earlier work in patent US20120083772A1, “CORNEAL TREATMENT SYSTEM AND METHOD” (CURVERIGHT LLC, priority 2010, published 2012).

Tested on: living cells

## OO [hydrogen peroxide]
  concentration that can stop the proliferation of living cells: 1000 nM
